Results on 9 compounds are retold here after US20240262842A1, “SMALL MOLECULE INHIBITORS OF KRAS G12C MUTANT” (Merck Sharp & Dohme LLC, priority 2021, published 2024).

Assay [1] has as its target T1, interaction between GMPPNP-bound recombinant K-Ras4B G12C mutant protein and cRAF RAS-binding domain (cRAF-RBD) (Homo sapiens, UniProt P01116, G12C).
T1 construct: His-tag (N)
Nature of the assay: Inhibitory activity on interaction between KRAS G12C and cRAF (Alpha technology). A digest of the protocol:
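Alpha signal measured 1.5 h after adding cRAF-RBD (aa 50-132) and detection reagents to GMPPNP-bound KRAS G12C (aa 1-169) pretreated 1 h at 25° C with compound (pH 7.5 buffer). 0% inhibition = DMSO, 100% = GDP-loaded KRAS; IC50 by curve fit.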

Another assay relates to MIA PaCa-2 cells. The assay is described as follows: Growth inhibition activity on KRAS-G12C mutant cell line (CellTiter-Glo 3D). The format is cell-based, human. The conditions noted are these: MIA PaCa-2, 3-day culture with compound. A digest of the protocol:
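IC50 (nM) derived from inhibition of luminescence (CellTiter-Glo 3D) relative to compound-free wells. Cells were seeded in U-bottom plates, grown 1 day, then exposed to compound for 3 days at 37 °C with 0.2% final DMSO.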

Where [2] appears, read: GMPPNP-bound KRAS G12C incubated with compound 25° C. 1 hour, Table 2-1, read-out: IC50.
Setting [3] is: Homo sapiens, MIA PaCa-2, 72 h, Table 3-1.
The mark [4] stands for this setting: GMPPNP-bound KRAS G12C incubated with compound 25° C. 1 hour, Table 2, read-out: IC50.
[5] abbreviates: IC50, GMPPNP-bound KRAS G12C incubated with compound 25° C. 1 hour, Table 2-1.

pIC50: −log10 of the molar value. Like-named read-outs stand apart in the source and are kept apart here.

T1 sequence (P01116 with tags, fused parts or gaps isoform P01116-2 G12C): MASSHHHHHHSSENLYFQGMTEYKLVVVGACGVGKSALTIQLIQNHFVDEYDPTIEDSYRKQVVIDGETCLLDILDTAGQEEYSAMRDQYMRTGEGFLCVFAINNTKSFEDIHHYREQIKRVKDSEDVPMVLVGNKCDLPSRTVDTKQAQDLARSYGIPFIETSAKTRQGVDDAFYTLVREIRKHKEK

The pIC50 is the IC50 on a negative log10 scale, so that one unit is a factor of ten. Consider `Cn1cnc2c3c(c(C(F)(F)F)cc21)-c1cccn2c(C(=O)c4cc(F)c(NC(=O)/C=C/CN5CC6(COC6)C5)c(F)c4)cc(c12)CCO3` [Example 198, (E)-N-(2,6-difluoro-4-(9-methyl-7-(trifluorometh-yl)-13,14-dihydro-9H-imidazo[4″,5″:5′,6′]benzo-[1′,2′:2,3]oxocino[4,5,6-hi]indolizine-2-carbonyl)-phenyl)-4-(2-oxa-6-azaspiro[3.3]heptan-6-yl)but-2-enamide], for which the pIC50 in assay [1] (setting [2]) was 7.24; in the assay on MIA PaCa-2 cells (setting [3]), 7.67.

As for `COc1cc2c(nc(C)n2C)c2c1-c1cc(F)cn3c(C(=O)c4cc(F)c(NC(=O)/C=C/CN[C@H]5CCOC5)c(F)c4)cc(c13)CCN2C` (single isomer, unassigned) [Example 237], the pIC50 in assay [1] (setting [2]) is 7.94; in the assay on MIA PaCa-2 cells (setting [3]), 8.56.

On to `Cn1cnc2c3c(c(C(F)(F)F)cc21)-c1cccn2c(C(=O)c4cc(F)c(NC(=O)/C=C/CN5CC[C@@H](O)C5)c(F)c4)cc(c12)CCO3` [Example 151, (R,E)-N-(2,6-difluoro-4-(9-methyl-7-(trifluoro-methyl)-13,14-dihydro-9H-imidazo[4″,5″:5′,6′]-benzo[1′,2′:2,3]oxocino-[4,5,6-hi]indolizine-2-carbonyl)phenyl)-4-(3-hydroxypyrrolidin-1-yl)-but-2-enamide], for which the negative-log IC50 (pIC50) was 7.81 in assay [1] (setting [2]) and 7.47 with MIA PaCa-2 cells (setting [3]).

In the case of `CO[C@H]1CC[C@H](NC/C=C/C(=O)Nc2c(F)cc(C(=O)c3cc4c5c(cccn35)-c3c(C(F)(F)F)cc5c(nc(C)n5C)c3OC(C)C4)cc2F)CC1` (stereo partly drawn) [Example 43, (E)-N-(2,6-difluoro-4-(9,10,13-trimethyl-7-(trifluoromethyl)-13,14-dihydro-9H-imidazo[4″,5″:5′,6′]benzo[1′,2′:2,3]oxocino[4,5,6-hi]indolizine-2-carbonyl)phenyl)-4-(((1r,4r)-4-methoxycyclohexyl)amino)but-2-enamide], the pIC50 was 7.77 in assay [1] (setting [4]) and 7.85 with MIA PaCa-2 cells (Table 3).

Take `CN1CCc2cc(C(=O)c3cc(F)c(NC(=O)/C=C/CN[C@H]4CCOC4)c(F)c3)n3cccc(c23)-c2c(C(F)(F)F)cc3[nH]cnc3c21` (atropisomer, axis not shown) [Example 218]: the pIC50 was 7.57 in assay [1] (setting [2]) and 7.85 with MIA PaCa-2 cells (setting [3]).

Consider `Cc1nc2c3c(c(C(F)(F)F)cc2n1C)-c1cccc2c(C(=O)c4cc(F)c(NC(=O)/C=C/CN[C@@H]5CCOC5)c(F)c4)cn(c12)CCN3C` (single isomer, unassigned) [Example 95], for which the figures for the pIC50 (in assay [1] (setting [5]); in the assay with MIA PaCa-2 cells (setting [3])) were 7.51 and 7.94, respectively.

Regarding `Cc1cc2c(nc(C)n2C)c2c1-c1cccc3c(C(=O)c4cc(F)c(NC(=O)/C=C/CN5CCC[C@H]5C(C)(C)O)c(F)c4)cn(c13)CCN2C` [Example 122, (S,E)-N-(2,6-difluoro-4-(6,8,9,11-tetramethyl-8,11,12,13-tetrahydro-imidazo[4″,5″:5′,6′]benzo-[1′,2′:5,6][1,4]diazocino-[7,8,1-hi]indole-2-carbon-yl)phenyl)-4-(2-(2-hydroxypropan-2-yl)-pyrrolidin-1-yl)but-2-enamide], the pIC50 in assay [1] (setting [5]) is 7.27; in the assay on MIA PaCa-2 cells (setting [3]) it was 7.05.

For the compound `COCc1nc2c3c(c(OC)cc2n1C)-c1cccn2c(C(=O)c4cc(F)c(NC(=O)/C=C/CN[C@H]5CCOC5)c(F)c4)cc(c12)CCN3C` (single isomer, unassigned) [Example 171], the pIC50 in assay [1] (setting [2]) was 8.20; in the assay with MIA PaCa-2 cells (setting [3]), 7.87.

For `CO[C@H]1CC[C@H](NC/C=C/C(=O)Nc2c(F)cc(C(=O)c3cc4c5c(cccn35)-c3c(C(F)(F)F)cc5c(nc(C)n5C)c3OCC4)cc2F)CC1` (single isomer, unassigned) [Example 30-2, (E)-N-(4-(9,10-dimethyl-7-(trifluoromethyl)-13,14-dihydro-9H-imidazo[4″,5″:5′,6′]benzo[1′,2′:2,3]oxocino[4,5,6-hi]indolizine-2-carbonyl)-2,6-difluorophenyl)-4-(((1r,4r)-4-methoxycyclohexyl)amino)but-2-enamide], the pIC50 in assay [1] (setting [4]) is 5.22; with MIA PaCa-2 cells (Table 3), 5.80.
